Results reported in patent US6048862A, “Benzylamidine derivatives with serotonin receptor binding activity” (Virginia Commonwealth University, priority 1999, dated 2000).
pEC50, pKi: −log10 of the molar value. Structures can show the parent of a compound that is named as a salt. Where two headings read alike, the source gives them in different places.

Tests used:
[1] = target: T1, 5-HT1D receptor (Oryctolagus cuniculus, UniProt P49144); assay: 5-HT1D receptor agonist assay: contraction of isolated rabbit saphenous vein; format: cell-based
T1 construct: Ring segments of the vein (4-5 mm in length) were cut and the endothelium gently removed; from tissue; host or cells: saphenous vein rings, endothelium removed, male New Zealand White rabbit
Method: The saphenous veins from both the left and right side were cleaned of fat and connective tissue and placed in Krebs solution (118 mM NaCl, 11 mM glucose, 25 mM NaHCO3, 4.7 mM KCl, 2.5 mM CaCl2. 2H2 O, 1.2 mM KH2 PO4, and 1.2 mM MgSO4. 7H2 O. Ring segments of the vein (4-5 mm in length) were cut and the endothelium gently removed. The segments were mounted in 10 mL baths containing Krebs buffer and were constantly aerated with 95% oxygen/5% carbon dioxide and maintained at 37° C. and pH 7.4 in order to record the isometric tension. A resting tension of 2.5 g was applied and the tissues allowed to equilibrate for 90 minutes, with washing every 15-20 minutes. After the equilibrium period, the rings were depolarized by the addition of two aliquots of KCl (80 mM final concentration) separated by a 20 minute washing period. The tissues were then exposed to prazosin, idazoxan and indomethacin (all 1 μM final concentration) for 30 minutes in order to exclude the actions of α1 - and α2 -adrenergic receptors and prostaglandin receptors respectively. […] Responses were calculated as a percentage of the maximal contraction evoked by 80 mM KCl. Only one compound was tested per preparation.
EC50 represents the concentration of the compound which causes 50% of the maximum contraction effected by it. If the compound included a maximum contraction of less than 60% of that of KCl (80 mM), it was considered a partial agonist.

[2] = target: 5-HT1Dα (Homo sapiens, UniProt P28221); assay: biochemical; format: binding; conditions: for 5-HT1Dβ / 5-HT1Dα: ratio of Ki values, selectivity for 5-HT1Dα over 5-HT1Dβ
Method: (§1) Compounds of the previous examples, as well as reference compounds were evaluated for binding affinity using cell types receptive specifically to 5-HT1Dα and 5-HT1Dβ ligands. The assay protocol generally entailed the incubation of membranes prepared from cells expressing the 5-HT1Dα or 5-HT1Dβ subtype of 5-HT receptors with ^3 H-serotonin. Increasing concentrations of the test compound were incubated with the radioligand and the membrane homogenates prepared from the recombinant cells. After a 60 minute incubation at 22° C., the incubation was terminated by vacuum filtration. The filters were washed with buffer and counted for radioactivity using liquid scintillation spectroscopy. The affinity of the test compound for the 5-HT1Dα or 5-HT1Dβ receptor was determined by computer-assisted analysis of the data and by determining the amount of compound necessary to inhibit 50% of the binding of the radioligand to the receptor. Concentrations ranging from 10^-11 M to 10^- 5 M of the test compound were evaluated.

[3] = target: 5-HT1Dβ (Homo sapiens, UniProt P28222); assay: Binding affinity, 3H-serotonin displacement, membranes of recombinant cells expressing 5-HT1Dβ
Method: as §1

[4] = rabbit isolated saphenous vein, prazosin, idazoxan and indomethacin (1 μM) present, 50% of the compound's own maximum contraction, 37° C., pH 7.4, read-out: EC50
[5] = 3H-serotonin radioligand, 60 minute incubation at 22° C., read-out: 5-HT1Dα Kl
[6] = 3H-serotonin radioligand, 60 minute incubation at 22° C., read-out: 5-HT1Dβ Kl

Sequence of 5-HT1Dα (P28221 whole entry): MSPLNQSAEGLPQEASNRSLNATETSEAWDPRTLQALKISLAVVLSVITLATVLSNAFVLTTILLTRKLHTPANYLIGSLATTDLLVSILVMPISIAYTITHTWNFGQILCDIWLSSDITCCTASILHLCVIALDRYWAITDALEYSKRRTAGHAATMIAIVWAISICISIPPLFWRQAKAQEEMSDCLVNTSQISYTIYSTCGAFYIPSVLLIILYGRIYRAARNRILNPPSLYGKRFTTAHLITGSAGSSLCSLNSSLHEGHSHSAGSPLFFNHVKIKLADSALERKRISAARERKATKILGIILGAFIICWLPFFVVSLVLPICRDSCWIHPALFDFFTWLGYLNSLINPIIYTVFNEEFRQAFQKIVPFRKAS
Sequence of 5-HT1Dβ (P28222 whole entry): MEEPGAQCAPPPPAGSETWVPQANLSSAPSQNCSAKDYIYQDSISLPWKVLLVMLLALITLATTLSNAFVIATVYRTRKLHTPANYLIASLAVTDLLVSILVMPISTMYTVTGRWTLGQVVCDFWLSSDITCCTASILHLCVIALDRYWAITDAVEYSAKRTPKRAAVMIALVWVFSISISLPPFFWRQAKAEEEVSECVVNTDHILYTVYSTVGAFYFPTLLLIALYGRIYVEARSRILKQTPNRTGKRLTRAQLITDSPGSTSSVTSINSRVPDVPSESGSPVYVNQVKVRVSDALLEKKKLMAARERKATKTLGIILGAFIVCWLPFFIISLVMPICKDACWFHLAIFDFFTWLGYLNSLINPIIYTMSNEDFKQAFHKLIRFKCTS
T1 sequence (P49144 whole entry): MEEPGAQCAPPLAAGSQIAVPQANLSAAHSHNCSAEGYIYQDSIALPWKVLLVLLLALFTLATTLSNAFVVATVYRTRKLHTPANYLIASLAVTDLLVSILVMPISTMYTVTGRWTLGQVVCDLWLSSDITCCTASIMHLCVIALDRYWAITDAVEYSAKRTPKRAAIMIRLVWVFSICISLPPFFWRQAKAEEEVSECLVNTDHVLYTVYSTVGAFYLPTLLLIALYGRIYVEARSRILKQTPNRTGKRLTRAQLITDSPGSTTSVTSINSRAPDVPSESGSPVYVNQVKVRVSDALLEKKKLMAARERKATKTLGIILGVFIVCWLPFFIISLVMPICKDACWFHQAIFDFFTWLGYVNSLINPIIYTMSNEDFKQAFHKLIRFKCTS

Row | Compound | pKi [2, 5] | 5-HT1Dβ / 5-HT1Dα [2] | pKi [3, 6] | other results
1 | Cc1cc(C(C)(C)C)cc(C)c1CC(=N)N [drawing 24] | – | – | – | pEC50 [1, 4]: 7.64
2 | CC(C)c1ccc(CC2=NCCN2)cc1.Cl [Example 5a, 4,5-Dihydro-2-[(4-isopropylphenyl)methyl]-1H-imidazole Hydrochloride] | 6.47 | 8 | 5.56 | –
3 | Cc1cc(C(C)C)cc(C)c1CC1=NCCN1.Cl [Example 5f, 4,5-Dihydro-2-[(2,6-dimethyl-4-isopropylphenyl)methyl]-1H-imidazole hydrochloride] | – | 23 | 7.43 | pKi [2]: 8.80
4 | Cc1cc(C)c(CC2=NCCN2)c(C)c1 [drawing 23] | – | – | – | pEC50 [1]: 7.00
5 | Cc1cc(Br)cc(C)c1CC1=NCCN1.Cl [Example 5d, 2-[(4-Bromo-2,6-dimethylphenyl)methyl]-4,5-dihydro-1H-imidazole hydrochloride] | 7.13 | 21 | 5.80 | –
6 | CC(C)(C)c1ccc(CC2=NCCN2)cc1 [Example 5b, 2-[(4-t-Butyphenyl)methyl]-4,5-dihydro-1H-imidazole hydrochloride] | 6.98 | > 95 | < 5.00 | –
7 | Cc1cc(C(C)(C)C)cc(C)c1CC1=NCCCN1.Cl [Example 5j, 2-(4-t-Butyl-2,6-dimethylbenzyl)-1,4,5,6-tetrahydropyrimidine hydrochloride] | 7.46 | > 143 | < 5.30 | –
8 | Cc1cc(C(C)(C)C)cc(C)c1CC1=NCCN1Cc1ccccc1.Cl [Example 5i, 2-[(4-t-Butyl-2,6-dimethylphenyl)methyl]-1-benzyl-4,5-dihydroimidazole hydrochloride] | 7.52 | 62 | 5.73 | –
9 | Cc1cc(C(C)(C)C)c(O)c(C)c1CC1=NCCN1 [oxymetazoline, reference compound] | – | – | 9.48 | –
10 | Cc1cc(C(C)(C)C)ccc1CC1=NCCN1.Cl [Example 5k, 2-[(4-t-Butyl-2-methylphenyl)methyl]-4,5-dihydro-1H-imidazole hydrochloride] | 8.17 | 105 | 6.15 | –
11 | Cc1cc(C(C)(C)C)cc(C)c1CC(=N)N [Example 6, 4-t-Butyl-2,6-dimethylbenzeneethanimidamide] | 7.89 | 46 | 6.22 | –
12 | CC(C)(C)c1ccc(CC2=NCCN2)cc1 [drawing 22] | – | – | – | pEC50 [1, 4]: 5.54
13 | Cc1cc(C(C)(C)C)cc(C)c1CC1=NCCN1 [Example 5c, 2-[(4-t-Butyl-2,6-dimethylphenyl)methyl]-4,5-dihydro-1H-imidazole hydrochloride] | – | – | – | pKi [3]: 7.83
14 | Cc1cc(C)c(CC2=NCCN2)c(C)c1.Cl [Example 5e, 4,5-Dihydro-2-[(2,4,6-trimethylphenyl)methyl]-1H-imidazole hydrochloride] | – | 20 | 5.46 | pKi [2]: 7.04
15 | Cl.c1ccc2cc(CC3=NCCN3)ccc2c1 [Example 5g, 4,5-Dihydro-2-(2-naphthalenylmethyl)-1H-imidazole hydrochloride] | – | 9 | – | pKi [2]: 6.87; pKi [3]: 5.93
